Test results as given in ChEMBL document CHEMBL1201862, “PubChem BioAssay data set” (2004).
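48-hour exposure; five concentrations; linearly interpolated endpoints. At the GI50, growth is halved.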 Active and inactive are the calls of the source. Cut-off read from the data, not from the text of the source: active = GI50 up to about 1.1 µM and inactive = higher.

Assays:
Assay in all cases: DTP human tumour cell line panel, 48 h
[1] = system: K562
[2] = system: ACHN
[3] = system: COLO 205
[4] = system: PC-3
[5] = system: TK-10
[6] = system: SF-539
[7] = system: NCI-H522
[8] = system: CAKI-1
[9] = system: OVCAR-3
[10] = system: HL-60
[11] = system: MDA-N
[12] = system: HOP-62
[13] = system: NCI-H23
[14] = system: T47D
[15] = system: SK-MEL-28
[16] = system: CCRF-CEM
[17] = system: U-251
[18] = system: NCI/ADR-RES
[19] = system: MDA-MB-231
[20] = system: NCI-H460
[21] = system: MCF7
[22] = system: DU-145
[23] = system: HOP-92
[24] = system: Hs-578T
[25] = system: SNB-75
[26] = system: EKVX
[27] = system: OVCAR-4
[28] = system: SR
[29] = system: A549
[30] = system: HCC 2998
[31] = system: A498
[32] = system: KM12
[33] = system: MDA-MB-435
[34] = system: SF-295
[35] = system: UO-31
[36] = system: OVCAR-5
[37] = system: 786-0
[38] = system: MOLT-4
[39] = system: LOX IMVI
[40] = system: SNB-19
[41] = system: IGROV-1
[42] = system: HCT-15
[43] = system: Malme-3M
[44] = system: OVCAR-8
[45] = system: HT-29
[46] = system: SW-620
[47] = system: M14
[48] = system: BT-549
[49] = system: SK-OV-3
[50] = system: NCI-H226
[51] = system: RPMI-8226
[52] = system: SK-MEL-5
[53] = system: UACC-257
[54] = system: RXF 393
[55] = system: UACC-62
[56] = system: SN12C
[57] = system: HCT-116
[58] = system: SK-MEL-2
[59] = system: SF-268

In the case of `O=C(O)C(Sc1ccc(Cl)cc1)Sc1ccc(Cl)cc1`, the GI50 [1] is reported as 33.1 µM (inactive), the GI50 [2] is reported as 47.4 µM (inactive) and the GI50 [3] is reported as 25.9 µM (inactive). For the same compound, the GI50 [4] was 47.4 µM (inactive), the GI50 [5] was 48.6 µM (inactive) and the GI50 [6] was 39.3 µM (inactive). For the same compound, the GI50 [7] was 32.1 µM (inactive), the GI50 [8] was 82.8 µM (inactive) and the GI50 [9] was 32.6 µM (inactive). For the same compound, the GI50 [10] was 33.8 µM (inactive), the GI50 [11] was 41.5 µM (inactive) and the GI50 [12] was 79.3 µM (inactive). For the same compound, the GI50 [13] was 44.2 µM (inactive), the GI50 [14] was 64 µM (inactive) and the GI50 [15] was 70 µM (inactive). For the same compound, the GI50 [16] was 28.6 µM (inactive), the GI50 [17] was 36.4 µM (inactive) and the GI50 [18] was 47.3 µM (inactive). For the same compound, the GI50 [19] was 66.8 µM (inactive), the GI50 [20] was 34 µM (inactive) and the GI50 [21] was 92.3 µM (inactive). The GI50 [22] was 71 µM (inactive), the GI50 [23] was 23.7 µM (inactive) and the GI50 [24] was 38.3 µM (inactive). For the same compound, the GI50 [25] was 89.7 µM (inactive), the GI50 [26] was 31.5 µM (inactive) and the GI50 [27] was 48.4 µM (inactive). For the same compound, the GI50 [28] was 39.6 µM (inactive), the GI50 [29] was 29.9 µM (inactive) and the GI50 [30] was 25.6 µM (inactive). For the same compound, the GI50 [31] was 34.8 µM (inactive), the GI50 [32] was 37.9 µM (inactive) and the GI50 [33] was 43.1 µM (inactive). The GI50 [34] was 46.9 µM (inactive), the GI50 [35] was 29.7 µM (inactive) and the GI50 [36] was 53 µM (inactive). The GI50 [37] was 48 µM (inactive), the GI50 [38] was 41.3 µM (inactive) and the GI50 [39] was 41.9 µM (inactive). The GI50 [40] was 40.6 µM (inactive), the GI50 [41] was 39.8 µM (inactive) and the GI50 [42] was 36 µM. For the same compound, the GI50 [43] was 71 µM (inactive), the GI50 [44] was 43.9 µM (inactive) and the GI50 [45] was 43.3 µM (inactive). For the same compound, the GI50 [46] was 58.7 µM (inactive), the GI50 [47] was 39.6 µM (inactive) and the GI50 [48] was 54.5 µM (inactive). The GI50 [49] was > 100 µM (inactive), the GI50 [50] was 51.9 µM (inactive) and the GI50 [51] was 31.6 µM (inactive). The GI50 [52] was 35.6 µM (inactive), the GI50 [53] was 44.5 µM (inactive) and the GI50 [54] was > 100 µM (inactive). The GI50 [55] was 27.7 µM (inactive), the GI50 [56] was 47 µM (inactive) and the GI50 [57] was 35.2 µM (inactive). The GI50 [58] was 26.3 µM (inactive) and the GI50 [59] was 48.9 µM (inactive).

`CC(=O)Oc1c2c(c(CC=C(C)C)c3c1C(=O)C1=C[C@@H]4CC5C(C)(C)OC(C/C=C(/C)C(=O)O)(C4=O)[C@@]15O3)OC(C)(CCC=C(C)C)C=C2` (stereo partly drawn) was tested, and the GI50 [1] was 0.409 µM (active), the GI50 [2] was 0.102 µM (active) and the GI50 [3] was 0.195 µM (active). The GI50 [4] was 0.244 µM (active), the GI50 [5] was 0.134 µM (active) and the GI50 [6] was 0.0986 µM (active). The GI50 [7] was 0.0796 µM (active), the GI50 [8] was 0.174 µM (active) and the GI50 [9] was 0.308 µM (active). For the same compound, the GI50 [10] was 0.0408 µM (active), the GI50 [11] was 0.16 µM (active) and the GI50 [12] was 0.832 µM (active). For the same compound, the GI50 [13] was 0.197 µM (active), the GI50 [14] was 0.12 µM (active) and the GI50 [15] was 0.188 µM (active). The GI50 [16] was 0.101 µM (active), the GI50 [17] was 0.0918 µM (active) and the GI50 [18] was 0.525 µM (active). For the same compound, the GI50 [19] was 0.227 µM (active), the GI50 [20] was 0.486 µM (active) and the GI50 [21] was 0.173 µM (active). The GI50 [22] was 0.287 µM (active), the GI50 [23] was 0.237 µM (active) and the GI50 [24] was 0.337 µM (active). The GI50 [25] was 0.323 µM (active), the GI50 [26] was 0.249 µM (active) and the GI50 [27] was 0.177 µM (active). For the same compound, the GI50 [28] was 0.258 µM (active), the GI50 [29] was 0.188 µM (active) and the GI50 [30] was 0.61 µM (active). The GI50 [31] was 0.65 µM (active), the GI50 [32] was 0.188 µM (active) and the GI50 [33] was 0.161 µM (active). The GI50 [34] was 0.454 µM (active), the GI50 [35] was 0.173 µM (active) and the GI50 [36] was 0.361 µM (active). For the same compound, the GI50 [37] was 0.0989 µM (active), the GI50 [38] was 0.0769 µM (active) and the GI50 [39] was 0.104 µM (active). The GI50 [40] was 0.269 µM (active), the GI50 [41] was 0.0998 µM (active) and the GI50 [42] was 0.244 µM. The GI50 [43] was 0.29 µM (active), the GI50 [44] was 0.184 µM (active) and the GI50 [45] was 0.19 µM (active). The GI50 [46] was 0.091 µM (active), the GI50 [47] was 0.282 µM (active) and the GI50 [48] was 0.205 µM (active). The GI50 [49] was 0.585 µM (active), the GI50 [50] was 0.313 µM (active) and the GI50 [51] was 0.184 µM (active). For the same compound, the GI50 [52] was 0.378 µM (active), the GI50 [53] was 0.384 µM (active) and the GI50 [54] was 0.144 µM (active). For the same compound, the GI50 [55] was 0.282 µM (active), the GI50 [56] was 0.181 µM (active) and the GI50 [57] was 0.149 µM (active). For the same compound, the GI50 [58] was 0.305 µM (active) and the GI50 [59] was 0.408 µM (active).
